Measured values: patent US7074789B2, “Kinase inhibitors” (Amgen Inc., priority 1999, dated 2006)
Read-outs that look alike come from different tables or passages of the source.

What was measured:
Format in all cases: biochemical
Src = molecular target: T1, Src (Homo sapiens, UniProt P12931); experiment: Kinase inhibition assay (33P transfer), Src; conditions: Table 6, Src-1 kinase inhibition class
T1 construct: Kinases are expressed as either kinase domains or full length constructs; made in house
Outline: (§1)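 Activity read as 33P incorporation from ATP into poly(Glu,Tyr) 4:1 or poly(Arg,Ser) 3:1 substrate bound to microtiter plates, measured by scintillation after acid washing. Enzymes were affinity-purified GST or polyHis fusions (kinase domain or full length) from E. coli or baculovirus; IC50 = 50% reduction in labelled phosphate.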

FGFR1 = molecular target: T2, FGFR1 (Homo sapiens, UniProt P11362); experiment: Kinase inhibition assay (33P transfer), FGFR1; conditions: read-out: FGFR1-1
T2 construct: Kinases are expressed as either kinase domains or full length constructs; made in house

Ret-1 = molecular target: T3, Ret-1 (Homo sapiens, UniProt P07949); experiment: Kinase inhibition assay (33P transfer), Ret; conditions: Table 6, Ret-1 kinase inhibition class
T3 construct: Kinases are expressed as either kinase domains or full length constructs; made in house

AKT = molecular target: T4, AKT (Homo sapiens, UniProt Q9Y243); experiment: Kinase inhibition assay (33P transfer), AKT; conditions: Table 2, kinase inhibition class; read-out: AKT3-1
T4 construct: Kinases are expressed as either kinase domains or full length constructs; made in house
Outline: (§2)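 Each kinase, expressed as a GST- or polyHis-tagged domain or full-length protein, phosphorylated plate-attached poly(Glu,Tyr) 4:1 or poly(Arg,Ser) 3:1 using 33P-ATP. Bound radioactivity was measured by scintillation after a 0.5% phosphoric acid wash.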

Lyn = molecular target: T5, Lyn (Homo sapiens, UniProt P07948); experiment: Kinase inhibition assay (33P transfer), Lyn; conditions: Table 6, Lyn-1 kinase inhibition class
T5 construct: Kinases are expressed as either kinase domains or full length constructs; made in house
Outline: as §1

Flt-1 = molecular target: T6, Flt-1 (Homo sapiens, UniProt P17948); experiment: Kinase inhibition assay (33P transfer), Flt-1
T6 construct: Kinases are expressed as either kinase domains or full length constructs; made in house
Outline: as §1

c-Met = molecular target: T7, c-Met (Homo sapiens, UniProt P08581); experiment: Kinase inhibition assay (33P transfer), c-Met; conditions: Table 2, kinase inhibition class; read-out: Met-1
T7 construct: Kinases are expressed as either kinase domains or full length constructs; made in house
Outline: as §1

Lck = molecular target: T8, Lck (Homo sapiens, UniProt P06239); experiment: Kinase inhibition assay (33P transfer), Lck; conditions: read-out: Lck-1
T8 construct: Kinases are expressed as either kinase domains or full length constructs; made in house
Outline: as §2

Fyn = molecular target: T9, Fyn (Homo sapiens, UniProt P06241); experiment: Kinase inhibition assay (33P transfer), Fyn; conditions: read-out: Fyn-1
T9 construct: Kinases are expressed as either kinase domains or full length constructs; made in house
Outline: as §1

Itk = molecular target: T10, Itk (Homo sapiens, UniProt Q08881); experiment: Kinase inhibition assay (33P transfer), Itk; conditions: read-out: Itk-1
T10 construct: Kinases are expressed as either kinase domains or full length constructs; made in house
T10 sequence (Q08881 1-620): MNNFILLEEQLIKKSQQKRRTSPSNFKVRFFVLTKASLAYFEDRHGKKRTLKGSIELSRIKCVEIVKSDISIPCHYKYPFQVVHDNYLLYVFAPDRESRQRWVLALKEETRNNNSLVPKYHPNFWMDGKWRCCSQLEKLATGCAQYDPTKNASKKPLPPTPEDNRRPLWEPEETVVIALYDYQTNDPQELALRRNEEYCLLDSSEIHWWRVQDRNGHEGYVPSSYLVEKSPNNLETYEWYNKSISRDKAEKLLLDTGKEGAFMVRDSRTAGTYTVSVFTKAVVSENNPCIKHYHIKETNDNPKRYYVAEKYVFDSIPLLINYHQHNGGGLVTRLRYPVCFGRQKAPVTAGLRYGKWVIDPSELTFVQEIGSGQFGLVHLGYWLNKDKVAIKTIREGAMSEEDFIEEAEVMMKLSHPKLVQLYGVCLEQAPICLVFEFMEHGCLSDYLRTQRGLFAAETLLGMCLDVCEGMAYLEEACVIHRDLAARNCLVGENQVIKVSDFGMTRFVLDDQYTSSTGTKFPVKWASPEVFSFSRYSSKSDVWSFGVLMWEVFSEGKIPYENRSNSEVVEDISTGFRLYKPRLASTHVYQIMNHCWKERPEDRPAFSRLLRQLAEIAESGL
Outline: as §1

Hck-1 = molecular target: T11, Hck-1 (Homo sapiens, UniProt P08631); experiment: Kinase inhibition assay (33P transfer), Hck; conditions: Table 6, Hck-1 kinase inhibition class
T11 construct: Kinases are expressed as either kinase domains or full length constructs; made in house

ErbB2 = molecular target: T12, ErbB2 (Homo sapiens, UniProt P04626); experiment: Kinase inhibition assay (33P transfer), ErbB2; conditions: read-out: ErbB2-2
T12 construct: Kinases are expressed as either kinase domains or full length constructs; made in house
Outline: as §1

PDGFRB [1] = molecular target: T13, PDGFRB (Homo sapiens, UniProt P09619); experiment: Kinase inhibition assay (33P transfer), PDGFRB; conditions: read-out: PDGFRB-1
T13 construct: Kinases are expressed as either kinase domains or full length constructs; made in house

Kdr = molecular target: T14, Kdr (Homo sapiens, UniProt P35968); experiment: Kinase inhibition assay (33P transfer), Kdr; conditions: read-out: KDR-1
T14 construct: Kinases are expressed as either kinase domains or full length constructs; made in house
Outline: as §2

ErbB4 = molecular target: T15, ErbB4 (Homo sapiens, UniProt Q15303); experiment: Kinase inhibition assay (33P transfer), ErbB4; conditions: read-out: ErbB4-1
T15 construct: Kinases are expressed as either kinase domains or full length constructs; made in house

EGFR = molecular target: T16, EGFR (Homo sapiens, UniProt P00533); experiment: Kinase inhibition assay (33P transfer), EGFR; conditions: Table 2, kinase inhibition class; read-out: EGFR-1
T16 construct: Kinases are expressed as either kinase domains or full length constructs; made in house
Outline: as §1

Zap-70 = molecular target: T17, Zap-70 (Homo sapiens, UniProt P43403); experiment: Kinase inhibition assay (33P transfer), Zap-70; conditions: read-out: Zap-1
T17 construct: Kinases are expressed as either kinase domains or full length constructs; made in house
T17 sequence (P43403 1-619): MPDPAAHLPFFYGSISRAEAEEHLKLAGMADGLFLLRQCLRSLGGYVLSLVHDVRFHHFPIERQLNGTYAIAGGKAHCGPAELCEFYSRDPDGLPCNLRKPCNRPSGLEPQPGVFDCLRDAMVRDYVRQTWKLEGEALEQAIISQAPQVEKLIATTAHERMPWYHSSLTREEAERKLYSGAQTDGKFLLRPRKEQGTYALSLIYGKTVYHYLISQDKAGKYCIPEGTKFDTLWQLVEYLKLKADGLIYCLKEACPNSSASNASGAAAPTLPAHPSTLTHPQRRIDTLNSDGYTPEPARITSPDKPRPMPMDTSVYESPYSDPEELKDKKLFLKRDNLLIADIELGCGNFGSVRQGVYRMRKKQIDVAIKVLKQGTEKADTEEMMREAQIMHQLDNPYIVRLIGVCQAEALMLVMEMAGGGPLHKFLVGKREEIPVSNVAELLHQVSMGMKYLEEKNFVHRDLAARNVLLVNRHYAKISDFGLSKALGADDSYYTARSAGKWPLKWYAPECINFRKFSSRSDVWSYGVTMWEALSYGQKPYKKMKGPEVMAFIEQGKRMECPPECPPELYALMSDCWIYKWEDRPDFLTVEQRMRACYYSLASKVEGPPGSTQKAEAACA
Outline: as §2

IGFR-1 = molecular target: T18, IGFR-1 (Homo sapiens, UniProt P08069); experiment: Kinase inhibition assay, IGFR-1 (Table 2); conditions: Table 2, kinase inhibition class
T18 construct: Kinases are expressed as either kinase domains or full length constructs; made in house

PDGFRB [2] = molecular target: T13, PDGFRB; experiment: Kinase inhibition assay (33P transfer), PDGFRB; conditions: read-out: PDGFRB-1; remark: listed apart in the source

T2 sequence (P11362 22-822, species assumed): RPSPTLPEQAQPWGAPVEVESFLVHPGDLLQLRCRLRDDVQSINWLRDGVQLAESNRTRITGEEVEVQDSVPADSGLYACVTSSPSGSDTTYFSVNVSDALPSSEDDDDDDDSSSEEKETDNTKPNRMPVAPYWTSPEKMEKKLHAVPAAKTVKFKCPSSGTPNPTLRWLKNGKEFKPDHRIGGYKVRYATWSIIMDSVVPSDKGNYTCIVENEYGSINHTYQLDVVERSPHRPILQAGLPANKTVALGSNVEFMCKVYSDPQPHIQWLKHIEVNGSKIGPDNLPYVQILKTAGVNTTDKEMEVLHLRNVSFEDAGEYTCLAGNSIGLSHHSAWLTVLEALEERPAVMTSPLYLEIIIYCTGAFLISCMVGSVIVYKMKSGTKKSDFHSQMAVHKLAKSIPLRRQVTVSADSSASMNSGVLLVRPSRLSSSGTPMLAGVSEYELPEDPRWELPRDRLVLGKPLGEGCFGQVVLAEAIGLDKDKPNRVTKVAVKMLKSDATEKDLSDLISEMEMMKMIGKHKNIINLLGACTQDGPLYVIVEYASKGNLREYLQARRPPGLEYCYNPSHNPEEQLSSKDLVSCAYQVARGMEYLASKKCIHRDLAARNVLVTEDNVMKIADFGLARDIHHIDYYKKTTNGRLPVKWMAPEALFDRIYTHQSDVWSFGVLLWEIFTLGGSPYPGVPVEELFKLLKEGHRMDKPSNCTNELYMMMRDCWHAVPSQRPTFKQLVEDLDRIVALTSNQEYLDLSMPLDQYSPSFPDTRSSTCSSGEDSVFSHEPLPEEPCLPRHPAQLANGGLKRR
T13 sequence (P09619 33-1106, species assumed): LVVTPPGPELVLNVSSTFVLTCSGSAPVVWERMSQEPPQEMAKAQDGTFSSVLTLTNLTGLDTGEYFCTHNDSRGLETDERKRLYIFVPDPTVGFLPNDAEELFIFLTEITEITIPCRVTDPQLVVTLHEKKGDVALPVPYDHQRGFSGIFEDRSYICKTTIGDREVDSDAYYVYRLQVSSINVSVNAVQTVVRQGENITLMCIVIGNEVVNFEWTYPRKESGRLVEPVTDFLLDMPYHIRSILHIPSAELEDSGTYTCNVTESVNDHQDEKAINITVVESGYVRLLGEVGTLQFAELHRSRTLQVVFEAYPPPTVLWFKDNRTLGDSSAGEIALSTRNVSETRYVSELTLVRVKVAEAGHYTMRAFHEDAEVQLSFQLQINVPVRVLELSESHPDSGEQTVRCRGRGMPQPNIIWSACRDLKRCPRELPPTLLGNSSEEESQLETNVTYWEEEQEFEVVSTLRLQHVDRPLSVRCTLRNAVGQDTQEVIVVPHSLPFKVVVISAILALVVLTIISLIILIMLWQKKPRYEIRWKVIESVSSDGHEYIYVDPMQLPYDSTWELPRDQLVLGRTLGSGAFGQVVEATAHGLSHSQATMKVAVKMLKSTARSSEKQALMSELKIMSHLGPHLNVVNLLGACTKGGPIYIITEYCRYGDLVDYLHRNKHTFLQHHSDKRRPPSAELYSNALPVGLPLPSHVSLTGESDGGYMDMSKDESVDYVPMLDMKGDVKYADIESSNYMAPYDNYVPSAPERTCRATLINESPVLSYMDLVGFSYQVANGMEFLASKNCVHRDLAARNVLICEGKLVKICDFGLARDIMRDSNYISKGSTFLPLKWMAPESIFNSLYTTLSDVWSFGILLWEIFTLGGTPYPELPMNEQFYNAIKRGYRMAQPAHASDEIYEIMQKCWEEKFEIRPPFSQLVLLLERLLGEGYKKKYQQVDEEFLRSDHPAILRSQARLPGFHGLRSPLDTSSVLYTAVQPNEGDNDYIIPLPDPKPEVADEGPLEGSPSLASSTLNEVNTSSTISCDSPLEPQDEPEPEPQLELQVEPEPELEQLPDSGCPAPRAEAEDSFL
T6 sequence (P17948 27-1338, species assumed): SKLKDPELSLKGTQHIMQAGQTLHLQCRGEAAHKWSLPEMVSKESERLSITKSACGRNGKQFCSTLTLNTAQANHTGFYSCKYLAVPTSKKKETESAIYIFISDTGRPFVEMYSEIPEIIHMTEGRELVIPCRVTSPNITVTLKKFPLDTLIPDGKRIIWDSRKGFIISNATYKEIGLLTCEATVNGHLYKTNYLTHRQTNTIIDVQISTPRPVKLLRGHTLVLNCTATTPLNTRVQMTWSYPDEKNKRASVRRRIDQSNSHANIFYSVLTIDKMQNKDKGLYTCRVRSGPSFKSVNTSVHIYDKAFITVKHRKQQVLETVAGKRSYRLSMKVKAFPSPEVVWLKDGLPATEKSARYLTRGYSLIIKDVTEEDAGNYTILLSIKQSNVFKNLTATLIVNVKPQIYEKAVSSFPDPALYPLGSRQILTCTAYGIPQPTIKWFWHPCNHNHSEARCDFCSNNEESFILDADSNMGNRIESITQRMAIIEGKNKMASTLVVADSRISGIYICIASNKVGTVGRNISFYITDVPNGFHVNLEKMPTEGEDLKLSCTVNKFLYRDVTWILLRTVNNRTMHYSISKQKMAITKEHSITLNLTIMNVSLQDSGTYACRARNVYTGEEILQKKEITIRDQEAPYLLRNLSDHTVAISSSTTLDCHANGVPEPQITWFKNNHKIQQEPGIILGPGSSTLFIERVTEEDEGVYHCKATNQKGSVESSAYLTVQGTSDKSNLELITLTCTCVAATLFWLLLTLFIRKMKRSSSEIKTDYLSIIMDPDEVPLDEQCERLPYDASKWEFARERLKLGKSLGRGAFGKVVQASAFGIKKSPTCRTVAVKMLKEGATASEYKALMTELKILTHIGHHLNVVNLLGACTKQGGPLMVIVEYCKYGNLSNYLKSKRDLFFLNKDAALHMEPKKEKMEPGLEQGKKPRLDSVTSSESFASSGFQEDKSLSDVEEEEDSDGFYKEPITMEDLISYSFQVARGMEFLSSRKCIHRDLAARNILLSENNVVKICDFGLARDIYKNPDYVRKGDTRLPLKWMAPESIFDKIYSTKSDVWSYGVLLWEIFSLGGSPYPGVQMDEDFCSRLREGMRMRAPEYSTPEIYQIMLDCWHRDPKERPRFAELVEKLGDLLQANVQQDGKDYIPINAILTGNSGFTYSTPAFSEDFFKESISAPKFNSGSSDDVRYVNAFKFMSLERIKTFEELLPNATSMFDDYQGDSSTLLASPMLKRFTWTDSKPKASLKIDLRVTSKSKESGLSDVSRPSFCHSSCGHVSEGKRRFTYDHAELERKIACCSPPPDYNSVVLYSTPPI
T14 sequence (P35968 20-1356, species assumed): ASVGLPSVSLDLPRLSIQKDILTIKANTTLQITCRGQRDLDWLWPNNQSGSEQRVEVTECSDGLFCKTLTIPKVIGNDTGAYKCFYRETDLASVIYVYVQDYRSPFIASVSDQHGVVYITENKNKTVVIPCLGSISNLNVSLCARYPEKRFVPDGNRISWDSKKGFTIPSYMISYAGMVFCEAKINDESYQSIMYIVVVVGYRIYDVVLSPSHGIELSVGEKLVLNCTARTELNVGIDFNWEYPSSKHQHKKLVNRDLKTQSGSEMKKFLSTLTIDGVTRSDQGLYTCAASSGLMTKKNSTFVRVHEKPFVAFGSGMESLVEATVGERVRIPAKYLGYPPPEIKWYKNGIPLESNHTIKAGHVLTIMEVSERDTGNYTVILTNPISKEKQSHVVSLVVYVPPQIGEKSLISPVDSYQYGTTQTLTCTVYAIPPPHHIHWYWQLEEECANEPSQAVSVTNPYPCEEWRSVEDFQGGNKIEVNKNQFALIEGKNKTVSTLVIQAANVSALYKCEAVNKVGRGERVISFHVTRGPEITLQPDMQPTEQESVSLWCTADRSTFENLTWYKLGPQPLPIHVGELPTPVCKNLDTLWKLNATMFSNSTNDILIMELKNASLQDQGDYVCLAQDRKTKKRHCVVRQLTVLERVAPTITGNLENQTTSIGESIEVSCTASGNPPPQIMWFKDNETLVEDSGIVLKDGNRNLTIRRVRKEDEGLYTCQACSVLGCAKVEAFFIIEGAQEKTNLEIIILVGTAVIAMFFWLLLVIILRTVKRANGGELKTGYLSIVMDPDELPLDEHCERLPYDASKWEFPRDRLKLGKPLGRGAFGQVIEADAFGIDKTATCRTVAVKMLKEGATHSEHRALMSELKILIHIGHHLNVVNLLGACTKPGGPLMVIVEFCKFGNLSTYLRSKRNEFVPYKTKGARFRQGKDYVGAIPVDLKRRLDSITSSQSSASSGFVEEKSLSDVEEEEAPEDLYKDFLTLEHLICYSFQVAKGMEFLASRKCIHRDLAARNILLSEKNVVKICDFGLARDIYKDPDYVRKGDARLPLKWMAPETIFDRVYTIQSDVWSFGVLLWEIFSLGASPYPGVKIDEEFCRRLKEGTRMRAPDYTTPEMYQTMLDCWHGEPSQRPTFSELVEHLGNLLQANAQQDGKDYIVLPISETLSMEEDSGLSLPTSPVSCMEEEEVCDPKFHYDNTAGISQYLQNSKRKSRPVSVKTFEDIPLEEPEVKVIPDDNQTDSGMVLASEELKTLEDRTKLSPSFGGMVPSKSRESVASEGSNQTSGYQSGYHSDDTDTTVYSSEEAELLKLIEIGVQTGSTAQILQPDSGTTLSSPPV
T11 sequence (P08631 whole entry, the tested form may be a part): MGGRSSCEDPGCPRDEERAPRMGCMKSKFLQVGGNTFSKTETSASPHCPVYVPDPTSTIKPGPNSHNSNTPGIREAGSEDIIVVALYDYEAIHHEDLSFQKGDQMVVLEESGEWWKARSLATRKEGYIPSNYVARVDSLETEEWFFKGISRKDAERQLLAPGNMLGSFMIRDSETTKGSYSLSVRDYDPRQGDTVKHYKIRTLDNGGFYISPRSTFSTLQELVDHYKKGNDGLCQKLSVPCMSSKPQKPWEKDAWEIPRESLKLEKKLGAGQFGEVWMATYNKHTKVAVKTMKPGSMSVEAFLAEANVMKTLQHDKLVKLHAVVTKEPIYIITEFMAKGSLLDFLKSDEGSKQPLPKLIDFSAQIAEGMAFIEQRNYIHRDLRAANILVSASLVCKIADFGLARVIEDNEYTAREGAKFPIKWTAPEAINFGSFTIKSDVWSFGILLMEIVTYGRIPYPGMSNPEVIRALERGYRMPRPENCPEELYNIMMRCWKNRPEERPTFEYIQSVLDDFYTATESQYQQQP

SMILES | IC50 (Src) [µM] | IC50 (FGFR1) [µM] | IC50 (Ret-1) [µM] | IC50 (AKT) [µM] | IC50 (Lyn) [µM] | IC50 (Flt-1) [µM] | IC50 (c-Met) [µM] | IC50 (Lck) [µM] | IC50 (Fyn) [µM] | IC50 (Itk) [µM] | IC50 (Hck-1) [µM] | IC50 (ErbB2) [µM] | IC50 (PDGFRB [1]) [µM] | IC50 (Kdr) [µM] | IC50 (ErbB4) [µM] | IC50 (EGFR) [µM] | IC50 (Zap-70) [µM] | IC50 (IGFR-1) [µM] | IC50 (PDGFRB [2]) [µM]
CCC(Nc1nc2ccccc2n1-c1ncnc(Nc2cc(OC)c(OC)c(OC)c2)n1)c1ccccc1 (centres unmarked) [Compound 592] | 0.782 to 4.69 | < 0.782 | < 0.782 | > 8.8 | 0.782 to 4.69 | 0.782 to 4.69 | > 8.8 | 0.782 to 4.69 | 0.782 to 4.69 | > 8.8 | > 8.8 | 0.782 to 4.69 | < 0.782 | < 0.782 | 4.69 to 6.84 | 0.782 to 4.69 | > 8.8 | > 8.8 | 
COc1cc(Nc2ncnc(N(C)c3cccc(Cl)c3)n2)cc(OC)c1OC [Compound 603] | 0.995 to 5.97 | 0.995 to 5.97 | < 0.995 | > 11.2 | 0.995 to 5.97 | 0.995 to 5.97 | 0.995 to 5.97 | < 0.995 | 0.995 to 5.97 | > 11.2 | 8.71 to 11.2 | < 0.995 | 0.995 to 5.97 | < 0.995 | 8.71 to 11.2 | < 0.995 | > 11.2 | 0.995 to 5.97 | 
COc1cc(Nc2ncnc(-n3c(NCc4ccc(Cl)cc4F)nc4ccccc43)n2)cc(OC)c1OC [Compound 606] | > 8.4 | 0.746 to 4.48 | 0.746 to 4.48 | > 8.4 | 4.48 to 6.53 | 4.48 to 6.53 | > 8.4 | 4.48 to 6.53 | > 8.4 | > 8.4 | > 8.4 | 6.53 to 8.4 | 0.746 to 4.48 | < 0.746 | > 8.4 | > 8.4 | > 8.4 | 6.53 to 8.4 | 
CCN(CC)CCOc1cc(Nc2ncnc(Nc3cc(OC)c(OC)c(OC)c3)n2)ccc1OC [Compound 600] | 0.802 to 4.81 | > 9.03 | 0.802 to 4.81 | > 9.03 | < 0.802 | > 9.03 | > 9.03 | < 0.802 | 0.802 to 4.81 | > 9.03 | > 9.03 | 4.81 to 7.02 | 0.802 to 4.81 | 0.802 to 4.81 | 0.802 to 4.81 | > 9.03 | > 9.03 | > 9.03 | 
COc1cc(Nc2ncnc(Nc3ccc4c(cnn4Cc4ccccc4)c3)n2)cc(OC)c1OCCN1CCOCC1 [Compound 559] | < 0.687 | 0.687 to 4.12 | < 0.687 | > 7.72 | < 0.687 | > 7.72 | > 7.72 | < 0.687 | < 0.687 | 4.12 to 6.01 | 4.12 to 6.01 | < 0.687 | < 0.687 | 0.687 to 4.12 | < 0.687 | < 0.687 | > 7.72 | 0.687 to 4.12 | 
COc1cc(Nc2ncnc(-n3c(NC(C)c4ccc(F)cc4)nc4ccccc43)n2)cc(OC)c1OC (centres unmarked) [Compound 605] | > 8.73 | < 0.776 | < 0.776 | > 8.73 | 0.776 to 4.66 | 0.776 to 4.66 | > 8.73 | 0.776 to 4.66 | > 8.73 | > 8.73 | > 8.73 | > 8.73 | < 0.776 | < 0.776 | > 8.73 | > 8.73 | > 8.73 | > 8.73 | 
Cc1cccc(Nc2ncnc(N3CCCc4ccc(C(F)(F)F)cc43)n2)c1 [Compound 582] | > 11.7 | 1.04 to 6.23 | 6.23 to 9.08 | > 11.7 | > 11.7 | > 11.7 | 9.08 to 11.7 | 6.23 to 9.08 | > 11.7 | > 11.7 |  | 1.04 to 6.23 |  | 6.23 to 9.08 | > 11.7 | < 1.04 | > 11.7 | > 11.7 | > 11.7
